We go through 13 molecules from patent US7947695B2, “5-membered annelated heterocyclic pyrimidines as kinase inhibitors” (Janssen Pharmaceutica NV, priority 2005, dated 2011).

Bounds are passed on as bounds.

Chain of CDK4/cyclinD1 (P11802 whole entry): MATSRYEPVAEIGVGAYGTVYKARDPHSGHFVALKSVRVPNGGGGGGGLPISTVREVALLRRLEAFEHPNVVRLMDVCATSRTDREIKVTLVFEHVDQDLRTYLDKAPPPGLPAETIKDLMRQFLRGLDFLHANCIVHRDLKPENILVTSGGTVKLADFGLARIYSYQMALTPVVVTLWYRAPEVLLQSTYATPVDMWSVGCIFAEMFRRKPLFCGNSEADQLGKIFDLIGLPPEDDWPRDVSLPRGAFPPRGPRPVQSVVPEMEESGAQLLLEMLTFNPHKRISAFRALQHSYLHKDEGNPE
Chain of CDK4/cyclinD1 (P24385 whole entry partner): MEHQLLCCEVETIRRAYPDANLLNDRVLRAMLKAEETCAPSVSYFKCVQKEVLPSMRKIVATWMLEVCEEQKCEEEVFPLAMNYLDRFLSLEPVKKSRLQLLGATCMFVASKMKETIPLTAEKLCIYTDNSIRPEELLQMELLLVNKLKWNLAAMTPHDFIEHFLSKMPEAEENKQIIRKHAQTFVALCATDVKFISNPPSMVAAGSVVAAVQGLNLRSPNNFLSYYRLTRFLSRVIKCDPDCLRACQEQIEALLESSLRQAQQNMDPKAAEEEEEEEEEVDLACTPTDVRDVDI
Chain of AURORA B (Q96GD4 whole entry): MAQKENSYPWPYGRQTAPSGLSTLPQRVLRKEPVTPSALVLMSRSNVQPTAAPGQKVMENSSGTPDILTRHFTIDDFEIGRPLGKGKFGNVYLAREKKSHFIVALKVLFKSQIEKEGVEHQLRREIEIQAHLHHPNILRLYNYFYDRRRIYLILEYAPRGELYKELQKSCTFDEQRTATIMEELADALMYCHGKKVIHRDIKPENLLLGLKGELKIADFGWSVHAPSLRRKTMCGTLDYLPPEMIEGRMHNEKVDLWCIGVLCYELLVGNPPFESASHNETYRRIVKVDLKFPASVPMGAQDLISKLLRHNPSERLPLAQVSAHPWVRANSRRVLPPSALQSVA
Chain of CDK4/cyclinD1 enzyme complex (P11802 whole entry): as the sequence (P11802 whole entry) above
Chain of CDK4/cyclinD1 enzyme complex (P24385 whole entry partner): as the sequence (P24385 whole entry partner) above

One test concerns the target CDK4/cyclinD1 (Homo sapiens, UniProt P11802). Briefly: In vitro filtration assay for CDK4 inhibitory activity (pRb phosphorylation, [33P]-ATP). The format is biochemical. The note with it: GST-pRb substrate, 1 μM unlabeled ATP, 25° C. 45 minutes, read-out: cdk4 filter (pIC50) (converted). As for the experimental part:
Compounds of the present invention were tested in an in vitro filtration assay assessing CDK4 activity by means of its pRb-phosphorylation activity using [^33P]-ATP as phosphor donor. The radioactive phosphorylated pRb is then captured on filtermats and the incorporated [^33P] quantitated using a phosphorage storage screen.
The CDK4 kinase reaction is performed at 25° C. for 45 minutes in a 96-well microtiterplate. The 25 μl reaction volume contains 50 mM Hepes pH 7.5, 10 mM NaF, 10 mM MgCl2, 1 mM Na3VO4, 1 μM unlabeled ATP, 1 mM DTT, 0.5 μCi AT^33P, 0.76 μg/well GST-pRb, 50 ng CDK4/cyclinD1/well and 0.2% compound in 100% DMSO.
(§1) The reaction is stopped by adding 5 μl of a 3% phosphoric acid solution. 10 μl of the reaction mixture is then spotted onto a Filtermat P30 filter (Wallac) and washed 3 times for 5 min. in 75 mM phosphoric acid and 1 time for 5 min. in methanol prior to drying and quantification on the Typhoon (Amersham) using a phosphorage storage screen.
(§2) For each experiment, controls (containing enzyme (complex) and DMSO without compound), a blank incubation (containing DMSO but no enzyme (complex) or compound) and samples (containing enzyme (complex) and compound dissolved in DMSO) were run in parallel. All compounds tested were dissolved and eventually further diluted in DMSO. […] In each test, the blank value was subtracted from both the control and the sample values. The control sample represented maximal enzyme activity. For each sample, the amount of cpm was expressed as a percentage of the mean cpm value of the controls. When appropriate, IC50-values (concentration of the drug, needed to reduce the enzyme activity to 50% of the control) were computed using linear interpolation between the experimental points just above and below the 50% level. Herein the effects of test compounds are expressed as pIC50 (the negative log value of the IC50-value).
Turning to `O=c1[nH]c2cnc(Nc3ccc(N4CCOCC4)nc3)nc2n1C1CCCCC1` [compound 81], the IC50 is 5010 nM.

Regarding `CN(C)CCOC(=O)c1ccc(Nc2ncc3[nH]c(=O)n(C4CCCCC4)c3n2)cc1` [compound 82], the IC50 was 2000 nM.

Turning to `CN1CCN(C(=O)c2ccc(Nc3ncc4[nH]c(=O)n(C5CCCCC5)c4n3)cc2)CC1` [compound 83], the IC50 was 2510 nM.

For the molecule `CN1CCN(c2ccc(Nc3ncc4[nH]c(=O)n(C5CCCCC5)c4n3)cc2Cl)CC1` [compound 84], the IC50 was 631 nM.

For `O=c1[nH]c2cnc(Nc3ccc(S(=O)(=O)N4CCOCC4)cc3)nc2n1C1CCCCC1` [compound 85], the IC50 was over 10000 nM.

Consider `O=c1[nH]c2cnc(Nc3ccc(CNC4CCNCC4)cc3)nc2n1C1CCCCC1` [compound 86], for which the IC50 is 2510 nM.

Take `CN1CCC(NCc2ccc(Nc3ncc4[nH]c(=O)n(C5CCCCC5)c4n3)cc2)CC1` [compound 87]: the IC50 was 3980 nM.

Regarding `CN1CCN(c2ccc(Nc3ncc4[nH]c(=O)n([C@H]5C[C@@H]6CC[C@H]5C6)c4n3)cc2)CC1` [compound 88], the IC50 was 2000 nM.

With `CN1CCN(c2ccc(Nc3ncc4c(n3)N(C3CCCCC3)C(=O)C4)cc2)CC1` [compound 89], the IC50 is 316 nM.

As to `O=c1[nH]n(C2CCCC2)c2nc(Nc3ccc(N4CCC(CCCO)CC4)cc3)ncc12` [compound 92], the IC50 was 6310 nM.

Consider `O=C(NC1CCOCC1)c1ccc(Nc2ncc3cnn(C4CCCCC4)c3n2)cc1` [compound 95], for which the IC50 was 794 nM.

`O=C(NCCN1CCOCC1)c1ccc(Nc2ncc3cnn(C4CCCCC4)c3n2)cc1` [compound 96]: the IC50 was 631 nM.

For the molecule `COCCCN1CCC(NC(=O)c2ccc(Nc3ncc4cnn(C5CCCCC5)c4n3)cc2)CC1` [compound 97], the IC50 is 631 nM.

The target of a further test is T1, AURORA A (Homo sapiens, UniProt O14965).
T1 sequence (O14965 1-403): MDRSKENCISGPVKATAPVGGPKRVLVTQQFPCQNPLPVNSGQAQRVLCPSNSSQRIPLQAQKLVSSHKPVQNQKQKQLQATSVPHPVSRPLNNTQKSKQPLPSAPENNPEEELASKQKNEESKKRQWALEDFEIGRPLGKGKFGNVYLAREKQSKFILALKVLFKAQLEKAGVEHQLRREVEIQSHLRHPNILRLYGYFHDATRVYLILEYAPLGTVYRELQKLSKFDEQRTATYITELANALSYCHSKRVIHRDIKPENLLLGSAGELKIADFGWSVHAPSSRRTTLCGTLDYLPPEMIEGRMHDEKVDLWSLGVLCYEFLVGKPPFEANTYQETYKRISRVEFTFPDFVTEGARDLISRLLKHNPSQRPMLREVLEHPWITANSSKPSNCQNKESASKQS
Briefly: In vitro filtration assay for AURORA A inhibitory activity. The format is biochemical. Particulars: Kemptide substrate, 1 μM unlabeled ATP, 25° C. 40 minutes, read-out: Aurora A see C.2 (pIC50) (converted). The procedure: Compounds of the present invention were tested in an in vitro filtration assay assessing AURORA A activity by means of its substrate-phosphorylation activity using [^33P]-ATP as phosphor donor. The radioactive phosphorylated substrate is then captured on filtermats and the incorporated [^33P] quantitated using a phosphorage storage screen.
The Aurora-A kinase reaction is performed at 25° C. for 40 minutes in a 96-well microtiterplate. The 25 μl reaction volume contains 12 mM MOPS pH 7, 0.4 mM EDTA, 0.002% Brij35, 1% glycerol, 0.02% beta-mercapto-ethanol, 0.2 mg/ml BSA, 1 μM unlabeled ATP, […] [^33P]-ATP, 200 μM Kemptide, 3 ng Aurora A/well and 0.2% compound in 100% DMSO.
as §1, §2
On to `O=c1[nH]c2cnc(Nc3ccc(N4CCOCC4)nc3)nc2n1C1CCCCC1` [compound 81], for which the IC50 was over 10000 nM.

For the molecule `CN(C)CCOC(=O)c1ccc(Nc2ncc3[nH]c(=O)n(C4CCCCC4)c3n2)cc1` [compound 82], the IC50 was over 10000 nM.

For `CN1CCN(C(=O)c2ccc(Nc3ncc4[nH]c(=O)n(C5CCCCC5)c4n3)cc2)CC1` [compound 83], the IC50 is over 10000 nM.

Turning to `CN1CCN(c2ccc(Nc3ncc4[nH]c(=O)n(C5CCCCC5)c4n3)cc2Cl)CC1` [compound 84], the IC50 is 6310 nM.

Turning to `O=c1[nH]c2cnc(Nc3ccc(S(=O)(=O)N4CCOCC4)cc3)nc2n1C1CCCCC1` [compound 85], the IC50 was 3160 nM.

For `O=c1[nH]c2cnc(Nc3ccc(CNC4CCNCC4)cc3)nc2n1C1CCCCC1` [compound 86], the IC50 is 5010 nM.

Consider `CN1CCC(NCc2ccc(Nc3ncc4[nH]c(=O)n(C5CCCCC5)c4n3)cc2)CC1` [compound 87], for which the IC50 was over 10000 nM.

With `CN1CCN(c2ccc(Nc3ncc4[nH]c(=O)n([C@H]5C[C@@H]6CC[C@H]5C6)c4n3)cc2)CC1` [compound 88], the IC50 was 1580 nM.

Regarding `CN1CCN(c2ccc(Nc3ncc4c(n3)N(C3CCCCC3)C(=O)C4)cc2)CC1` [compound 89], the IC50 was 1580 nM.

As to `O=C(NC1CCOCC1)c1ccc(Nc2ncc3cnn(C4CCCCC4)c3n2)cc1` [compound 95], the IC50 is 126 nM.

On to `O=C(NCCN1CCOCC1)c1ccc(Nc2ncc3cnn(C4CCCCC4)c3n2)cc1` [compound 96], for which the IC50 was 100 nM.

For the molecule `COCCCN1CCC(NC(=O)c2ccc(Nc3ncc4cnn(C5CCCCC5)c4n3)cc2)CC1` [compound 97], the IC50 is 398 nM.

Another test deals with AURORA B (Homo sapiens, UniProt Q96GD4). Briefly: In vitro filtration assay for AURORA B inhibitory activity. Type of test: biochemical. The note with it: peptide (C(LRRWSLG)×4), 1 μM unlabeled ATP, 25° C. 40 minutes, read-out: Aurora B see C.3 (pIC50) (converted). As for the experimental part:
Compounds of the present invention were tested in an in vitro filtration assay assessing AURORA B activity by means of its substrate-phosphorylation activity using [^33P]-ATP as phosphor donor. The radioactive phosphorylated substrate is then captured on filtermats and the incorporated [^33P] quantitated using a phosphorage storage screen.
The Aurora-B kinase reaction is performed at 25° C. for 40 minutes in a 96-well microtiterplate. The 25 μl reaction volume contains 60 mM Hepes pH 7.5, 3 mM MgCl2, 3 mM MnCl2, 3 μM Na3VO4, 50 μg/ml PEG20000, 1 μM unlabeled ATP, 1 mM DTT, 0.2 μCi AT^33P, 0.25 μg/well peptide (C(LRRWSLG)×4),100 ng Aurora-B/well and 0.2% compound in 100% DMSO. The reaction is stopped by adding 5 μl of a 3% phosphoric acid solution. 10 μl of the reaction mixture is then spotted onto a Filtermat P30 filter (Wallac) and washed 3 times for 5 min. in 75 mM phosphoric acid and 1 time for 5 min. in methanol prior to drying and quantification on the Typhoon (Amersham) using a phosphorage storage screen.
as §2
As for `O=c1[nH]c2cnc(Nc3ccc(N4CCOCC4)nc3)nc2n1C1CCCCC1` [compound 81], the IC50 was over 10000 nM.

With `CN(C)CCOC(=O)c1ccc(Nc2ncc3[nH]c(=O)n(C4CCCCC4)c3n2)cc1` [compound 82], the IC50 was over 10000 nM.

`CN1CCN(C(=O)c2ccc(Nc3ncc4[nH]c(=O)n(C5CCCCC5)c4n3)cc2)CC1` [compound 83]: the IC50 is over 10000 nM.

Take `CN1CCN(c2ccc(Nc3ncc4[nH]c(=O)n(C5CCCCC5)c4n3)cc2Cl)CC1` [compound 84]: the IC50 was over 10000 nM.

For the molecule `O=c1[nH]c2cnc(Nc3ccc(S(=O)(=O)N4CCOCC4)cc3)nc2n1C1CCCCC1` [compound 85], the IC50 was over 10000 nM.

For `O=c1[nH]c2cnc(Nc3ccc(CNC4CCNCC4)cc3)nc2n1C1CCCCC1` [compound 86], the IC50 was over 10000 nM.

Regarding `CN1CCC(NCc2ccc(Nc3ncc4[nH]c(=O)n(C5CCCCC5)c4n3)cc2)CC1` [compound 87], the IC50 was over 10000 nM.

As for `CN1CCN(c2ccc(Nc3ncc4[nH]c(=O)n([C@H]5C[C@@H]6CC[C@H]5C6)c4n3)cc2)CC1` [compound 88], the IC50 was over 10000 nM.

As to `CN1CCN(c2ccc(Nc3ncc4c(n3)N(C3CCCCC3)C(=O)C4)cc2)CC1` [compound 89], the IC50 is 3160 nM.

Turning to `O=c1[nH]n(C2CCCC2)c2nc(Nc3ccc(N4CCC(CCCO)CC4)cc3)ncc12` [compound 92], the IC50 is over 10000 nM.

Take `O=C(NC1CCOCC1)c1ccc(Nc2ncc3cnn(C4CCCCC4)c3n2)cc1` [compound 95]: the IC50 was 631 nM.

Regarding `O=C(NCCN1CCOCC1)c1ccc(Nc2ncc3cnn(C4CCCCC4)c3n2)cc1` [compound 96], the IC50 was 1260 nM.

For `COCCCN1CCC(NC(=O)c2ccc(Nc3ncc4cnn(C5CCCCC5)c4n3)cc2)CC1` [compound 97], the IC50 is 501 nM.

The target in another test is CDK4/cyclinD1 enzyme complex (Homo sapiens, UniProt P11802). Put plainly: In vitro scintillation proximity assay (SPA) for CDK4 inhibitory activity. Type of test: biochemical. The note with it: GST-pRb substrate, 33P-ATP, 25° C. 30 minutes, read-out: cdk4 SPA see C.4 (pIC50) (converted). The procedure:
Compounds of the present invention were tested in an in vitro assay based on SPA technology.
In principle, the assay relies upon the well established SPA technology for the detection of CDK4 phosphorylated proteins, i.e pRb. This phosphorylation is performed using I0 CDK4/cyclinD1 enzyme complex and ^33P-ATP as phosphor donor.
The CDK4 SPA kinase reaction is performed at 25° C. for 30 minutes in a 96-well microtiter plate. The 100 μl reaction volume contains 40 mM Hepes, 6 mM NaF, 6 mM MgCl2, 0.6 mM Na3VO4, 2 μg/ml Pepstatin, 2 μg/ml Leupeptin, 2 μg/ml Aprotinin, 50 μg/ml TLCK, 150 μg/ml DTT, 0.3 μg/ml benzamide, 0.1 μCi ^33P-ATP, 1.7 μg GST-pRb, 50 ng CDK4/cyclinD1/well and 0.2% compound in 100% DMSO. The reaction is stopped by adding to each well 100 μl of the glutathione coated SPA beads (10 mg/ml in PBS+10 mM EDTA+100 μM ATP+0.05% Triton X 100). The plates are then shaked at 300 rpm for 30 min to allow binding of the GST-tagged substrate to the glutathione coated beads. The beads are allowed to settle at the bottom of the plate for 30 minutes. The microtiterplates are centrifuges at 800 rpm for 10 minutes and the amount of phosphorylated (^33P) substrate is determined by counting (30 sec/well) in a microtiterplate scintillation counter.
as §2
A general note: In a scintillation proximity assay essentially only radioactivity close to the scintillant gives light.
Turning to `O=c1[nH]n(C2CCCC2)c2nc(Nc3ccc(N4CCC(CCCO)CC4)cc3)ncc12` [compound 92], the IC50 is 2510 nM.
